One data set addresses T1, rhVEGF165-biotin (Homo sapiens, UniProt P15692).
T1 sequence (P15692 27-191 isoform P15692-4): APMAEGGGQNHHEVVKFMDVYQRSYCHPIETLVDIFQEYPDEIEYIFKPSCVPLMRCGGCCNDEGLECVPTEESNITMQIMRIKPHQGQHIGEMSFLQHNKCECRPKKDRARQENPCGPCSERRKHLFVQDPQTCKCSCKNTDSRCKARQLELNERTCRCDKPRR
Nature of the data set: VEGF-Binding ELISA (dose-response). The following applies: Table 6. The protocol: The potency of test substances as a VEGF-neutralising moiety is measured in an ELISA format. This assay measures the solution-phase interaction between rhVEGF165-biotin and test sample. Unbound VEGF165-biotin is then immobilised on a solid-phase anti-hVEGF antibody (R&D systems MAB293). The biotin signal is detected with streptavidin-alkaline phosphatase, which gives a colorimetric signal when incubated with p-nitrophenyl phosphate. Plates are read in a spectrophotometer at 405 nm.
Any test compound that binds to VEGF165-biotin and prevents it from binding to the antibody will lower the color signal and be recognized as a “hit”. Hits were defined as compounds that show>60% inhibition.
VEGF165-biotin+assay buffer ? 0% inhibition
Soluble VEGF receptor (sflt @ 4 nM) ? 70% inhibition
The primary screening of all library compounds was done at a compound concentration of 50 μM, followed by measuring dose-response effects of “hits” between 0.05 and 500 μM for the calculation of IC50 values.
The compounds were dissolved in DMSO and it was shown that the solvent has no effect on the assay at this concentration.
In general terms: An ELISA detects its analyte on a solid surface through an enzyme-linked reagent.

For data set [1], the system named is human umbilical vein endothelial cells (HUVEC). Nature of the data set: HUVEC proliferation assay co-stimulated with rhVEGF. It counts as cell-based. The following applies: Homo sapiens, HUVEC, Table 6. How it is done: The HUVEC assay measures the potency of test substances to inhibit in vitro proliferation of human umbilical vein endothelial cells (HUVEC) when co-stimulated with recombinant human vascular endothelial growth factor (rhVEGF).
HUVEC are grown under defined conditions (EGM-2 medium, 37° C., 5% CO2 and 95% humidity). They are seeded into 48-well plates using EBM medium with only 1% serum and incubated for 24 h. This is to ensure that cells are not stimulated before treatment with VEGF and test compound.
Test compounds are diluted in medium to concentrations between 0.05 and 50 μM and dosed together with VEGF165 at 12 ng/ml. This VEGF concentration was determined in a VEGF-dose-response curve to be just sub-optimal for maximum cell proliferation. Cells are incubated for 48 h at above conditions and viable cell density is measured using a tetrazolium compound (MTS). Viable cells reduce MTS into a soluble formazan product, which has an absorbance maximum at 490 nm. The absorbance is directly proportional to cell density.
EBM+1% serum (no VEGF) ? Minimum or Blank
EBM+1% serum (12 ng/ml) ? Maximum

In data set [2] the target is T2, EGF binding to human A431 cells (Homo sapiens, UniProt P00533).
T2 construct: endogenous in cells; host or cells: A431
Nature of the data set: Epidermal Growth Factor (EGF) radioligand binding assay. The protocol:
(§1) Compounds 1633-00382 and 1633-02177 were tested for selectivity by determining their effect on the following assays: • Basic Fibroblast Growth Factor (FGF)-Induced cell proliferation (Gospodarowicz D, Brown K D, Birdwell C R & Zetter B R (1978) J. Cell. Biol. 77: 774-788); • Epidermal Growth Factor (EGF) radioligand binding assay (Dittadi R, Gion M, Brazzale A., Bruscagnin G. (1990) Clin. Chem. 36: 849-854; Massague J (1983) J. Biol. Chem. 258:13614-13620); and • Platelet-Derived Growth Factor (PDGF) radioligand binding assay (Williams L T, Tremble P M, Lavin M F & Sunday M E (1984) J. Biol. Chem. 259 5287-5294

In data set [3] the test system is PDGF binding to mouse 3T3 cells. As to the kind of experiment: Platelet-Derived Growth Factor (PDGF) radioligand binding assay. The protocol:
as §1

The test system of the next data set is basic FGF. As to the kind of experiment: Basic Fibroblast Growth Factor (FGF)-induced cell proliferation. It counts as cell-based. The protocol: as §1
The mark [4] stands for this setting: ***re-tested in full-concentration response assays.

The structures appear in SMILES notation.

T2 sequence (P00533 25-1210): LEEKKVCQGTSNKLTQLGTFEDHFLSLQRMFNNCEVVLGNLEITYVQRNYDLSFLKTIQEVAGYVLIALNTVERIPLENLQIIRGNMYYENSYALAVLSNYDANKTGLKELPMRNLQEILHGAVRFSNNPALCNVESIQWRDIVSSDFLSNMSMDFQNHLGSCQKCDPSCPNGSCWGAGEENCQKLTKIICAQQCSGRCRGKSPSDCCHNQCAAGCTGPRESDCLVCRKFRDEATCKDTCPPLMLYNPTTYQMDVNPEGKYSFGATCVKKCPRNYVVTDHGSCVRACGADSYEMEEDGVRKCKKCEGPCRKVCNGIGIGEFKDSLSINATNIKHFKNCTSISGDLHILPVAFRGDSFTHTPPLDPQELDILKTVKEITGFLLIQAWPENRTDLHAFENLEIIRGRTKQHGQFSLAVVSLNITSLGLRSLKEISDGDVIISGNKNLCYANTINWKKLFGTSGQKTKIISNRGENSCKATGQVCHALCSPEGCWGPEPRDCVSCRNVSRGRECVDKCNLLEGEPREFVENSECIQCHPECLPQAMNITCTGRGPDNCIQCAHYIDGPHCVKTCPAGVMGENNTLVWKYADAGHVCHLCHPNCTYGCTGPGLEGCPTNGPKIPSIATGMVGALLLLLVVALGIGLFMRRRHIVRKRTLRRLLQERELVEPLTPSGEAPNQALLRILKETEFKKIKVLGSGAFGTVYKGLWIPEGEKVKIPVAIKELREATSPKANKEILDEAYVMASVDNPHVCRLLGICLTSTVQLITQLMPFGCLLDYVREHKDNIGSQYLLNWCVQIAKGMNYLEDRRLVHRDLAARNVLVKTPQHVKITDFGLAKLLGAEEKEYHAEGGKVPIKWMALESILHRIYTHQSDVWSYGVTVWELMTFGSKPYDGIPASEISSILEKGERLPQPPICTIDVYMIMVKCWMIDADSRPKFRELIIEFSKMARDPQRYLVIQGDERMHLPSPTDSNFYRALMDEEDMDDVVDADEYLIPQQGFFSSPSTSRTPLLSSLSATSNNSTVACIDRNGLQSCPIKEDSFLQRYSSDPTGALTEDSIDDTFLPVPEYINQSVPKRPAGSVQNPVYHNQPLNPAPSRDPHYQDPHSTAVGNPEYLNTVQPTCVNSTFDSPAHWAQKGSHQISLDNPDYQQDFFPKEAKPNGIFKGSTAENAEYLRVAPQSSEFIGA

With `NC(=O)c1ccc(Cl)c(NC(=O)c2csc(C3CCN(C(=O)CSc4ncccn4)CC3)n2)c1` [Compound 1633-00382], the IC50 at rhVEGF165-biotin (setting [4]) was 1 µM; on rhVEGF165-biotin (**tested after re-synthesised) it was 4 µM; at rhVEGF165-biotin (*re-test 3 months later) it was 3.49 µM; on rhVEGF165-biotin (first test (unmarked value)), 0.655 µM; in data set [1] (setting [4]), 12 µM; in data set [1] (**tested after re-synthesised) it was 20 µM. Further, the IC50 in data set [1] (*re-test 3 months later) is 16 µM; in data set [1] (first test (unmarked value)), 0.938 µM. For the same compound, the “inhibition of EGF binding” value in data set [2] was “did not inhibit”. Besides, in data set [3], the “inhibition of PDGF binding” value was “did not inhibit”.
Consider `CN(C)c1cccc(C(=O)N2CCC(c3nc(C(=O)Nc4cc(CC(N)=O)ccc4Cl)cs3)CC2)c1` [Compound 1633-02177], for which the IC50 at rhVEGF165-biotin (**tested after re-synthesised) is 18 µM; at rhVEGF165-biotin (first test (unmarked value)), 12 µM; in data set [1] (**tested after re-synthesised), 0.478 µM; in data set [1] (first test (unmarked value)), 0.712 µM; with basic FGF (Fibroblast, significant anti-proliferative activity, estimated value, read-out: anti-proliferative activity against basic FGF, estimated value) it was 0.406 µM. The cytotoxicity entry in the data set with basic FGF (at 10 μM) is “moderate but not significant cytotoxicity”. In addition, the “inhibition of EGF binding” value in data set [2] is reported as “did not inhibit”. Besides, the “inhibition of PDGF binding” value in data set [3] is listed as “did not inhibit”.
